Test [1] deals with T1, Lysosomal acid glucosylceramidase (Mus musculus, UniProt P17439).
T1 sequence (P17439 whole entry): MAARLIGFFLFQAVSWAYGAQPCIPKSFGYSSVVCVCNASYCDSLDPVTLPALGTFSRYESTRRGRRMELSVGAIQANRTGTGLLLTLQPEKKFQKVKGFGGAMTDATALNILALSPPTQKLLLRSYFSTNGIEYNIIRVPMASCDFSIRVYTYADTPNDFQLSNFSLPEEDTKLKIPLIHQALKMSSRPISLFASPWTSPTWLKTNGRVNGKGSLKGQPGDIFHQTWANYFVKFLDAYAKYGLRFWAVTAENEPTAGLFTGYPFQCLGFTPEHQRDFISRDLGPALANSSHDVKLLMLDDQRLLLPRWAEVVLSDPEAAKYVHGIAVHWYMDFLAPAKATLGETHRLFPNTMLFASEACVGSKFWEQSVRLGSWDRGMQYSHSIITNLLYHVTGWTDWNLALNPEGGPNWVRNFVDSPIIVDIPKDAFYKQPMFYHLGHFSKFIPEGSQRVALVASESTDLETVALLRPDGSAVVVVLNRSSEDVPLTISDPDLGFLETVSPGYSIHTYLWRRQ
The test can be described thus: Compound was tested for inhibitory activity against beta-glucocerebrosidase.

The target in test [2] is T1, Lysosomal acid glucosylceramidase.

Consider `CCCCCCCCCCCCCCN[C@@H]1C=C(CO)[C@H](O)C(O)[C@@H]1O` (some centres undefined), for which the IC50 (as a rule, the concentration needed to halve the response being measured) in test [1] amounted to 120 nM. This counts as sub-micromolar.
Still for that read-out and setting: the value for `OC1C2O[C@H]2[C@@H](O)C(O)[C@@H]1O` (some centres undefined) was 1100 nM.
With `CCCCCCCCCCN[C@@H]1C=C(CO)[C@H](O)C(O)[C@@H]1O` (some centres undefined), in test [1], the midpoint of inhibition, the IC50, lay at 70 nM.
On the same count and under the same terms, the value for `CCCCCCN[C@@H]1C=C(CO)[C@H](O)C(O)[C@@H]1O` (some centres undefined) was 300 nM; that for `CCCCN[C@@H]1C=C(CO)[C@H](O)C(O)[C@@H]1O` (some centres undefined) was 11000 nM.
`CCCCCCCCCCCCC/C=C/[C@@H](O)[C@H](CN[C@@H]1C=C(CO)[C@H](O)C(O)[C@@H]1O)NC(=O)CCCCCCCCCCCCCCC` (some centres undefined) had an IC50 in test [1] of 300 nM. Compared with the last compound, the IC50 is about 37-fold lower.
Still for that read-out and setting: the value for `CCCCCCCCN[C@@H]1C=C(CO)[C@H](O)C(O)[C@@H]1O` (some centres undefined) was 30 nM.
In the case of `CCCCCCCCCCCCCCCCCCN[C@@H]1C=C(CO)[C@H](O)C(O)[C@@H]1O` (some centres undefined), in test [1], it took 300 nM to reach half-maximal inhibition (IC50). This IC50 lies about 10-fold higher than the previous one.
Consider `N[C@H]1C=C(CO)C(O)[C@H](O)C1O` (single isomer, unassigned) [VALIENAMINE], for which the concentration for half-maximal inhibition (IC50) entry in test [2] is listed as “Not Active”.

(Values after ChEMBL document CHEMBL1149959, “Synthesis of potent -D-glucocerebrosidase inhibitors: N-alkyl--valienamines” (Bioorg Med Chem Lett, 1996).)
